We go through 31 compounds from patent US20150087673A1, “METHODS FOR USING AND BIOMARKERS FOR AMPK-ACTIVATING COMPOUNDS” (RIGEL PHARMACEUTICALS, INC., priority 2013, published 2015).

Broadly, the pEC50 is the EC50 on a negative log10 scale, so that one unit is a factor of ten.

pEC50: −log10 of the molar value. A value given as a limit tells only on which side of the number the result lay.

The subject of the assay is AMPK. The experiment in a line: AMPK activation assay (enzyme-linked immunosorbent assay). In kind it is cell-based. On the procedure: Compounds were assayed for their ability to activate AMPK using an enzyme-linked immunosorbent assay. Reagents and procedures for measuring AMPK activation are well known and kits for AMPK activation assays are commercially available.
`COc1ccc(C(=O)C2CCN(C(=O)c3ccc(C(=O)NC4CCN(Cc5cccc(OC)c5)CC4)cn3)CC2)cc1` [Compound 425, 6-(4-(4-methoxybenzoyl)piperidine-1-carbonyl)-N-(1-(3-methoxybenzyl)piperidin-4-yl) nicotinamide] gave a negative logarithm of the EC50 (pEC50) of over 6.30.

With `CSc1ccc(C(=O)C2CCN(C(=O)c3ccc(C(=O)NC4CCN(Cc5ccc(C#N)cc5)CC4)nc3)CC2)cc1` [Compound 372, N-(1-(4-cyanobenzyl)piperidin-4-yl)-5-(4-(4-(methylthio)benzoyl)piperidine-1-carbonyl)picolinamide], the pEC50 was over 6.30.

Turning to `O=C(Nc1ccc(Oc2ccc(F)cc2)nc1)c1ccc(C(=O)N2CCC(C(=O)c3ccc(N4CCOCC4)cc3)CC2)cn1` [Compound 379, N-(6-(4-fluorophenoxy)pyridin-3-yl)-5-(4-(4-morpholinobenzoyl)piperidine-1-carbonyl)picolinamide], the pEC50 is over 6.30.

In turn, `O=C(N[C@H]1CC[C@@H](Oc2ccc(F)cc2)CC1)c1ccc(C(=O)N2CCC(C(=O)c3ccc(F)cc3)CC2)cn1` [Compound 304, 5-(4-(4-fluorobenzoyl)piperidine-1-carbonyl)-N-((cis)-4-(4-fluorophenoxy)cyclohexyl)picolinamide] had a negative-log EC50 (pEC50) of over 6.30.

`COc1ccc(C(=O)C2CCN(C(=O)c3ccc(C(=O)NC4CCN(Cc5ccc(OC(F)(F)F)cc5)CC4)cn3)CC2)cc1` [Compound 430, 6-(4-(4-methoxybenzoyl)piperidine-1-carbonyl)-N-(1-(4-(trifluoromethoxy)benzyl)piperidin-4-yl)nicotinamide] gave a pEC50 of over 6.30.

Compound `O=C(c1ccc(-c2cccc(OCc3ccccc3)c2)nc1)N1CCN(Cc2ccc(F)cc2)CC1` [Compound 22, (6-(3-(benzyloxy)phenyl)pyridin-3-yl)(4-(4-fluorobenzyl)piperazin-1-yl)methanone] gave a pEC50 of over 6.30.

Take `N#Cc1ccc(CN2CCC(NC(=O)c3ccc(C(=O)N4CCC(C(=O)c5ccc(F)c(F)c5)CC4)cn3)CC2)cc1` [Compound 281, N-(1-(4-cyanobenzyl)piperidin-4-yl)-5-(4-(3,4-difluorobenzoyl)piperidine-1-carbonyl)picolinamide]: the pEC50 is over 6.30.

Turning to `CC(c1ccccc1)N1CCC(NC(=O)c2ccc(C(=O)N3CCN(Cc4ccc(F)cc4)CC3)cn2)CC1` (stereo not shown) [Compound 18, 5-(4-(4-fluorobenzyl)piperazine-1-carbonyl)-N-(1-(1-phenylethyl)piperidin-4-yl)picolinamide], the pEC50 was over 6.30.

Consider `O=C(NC1CCN(Cc2ccccc2)CC1)c1ccc(C(=O)N2CCN(Cc3ccccc3)CC2)cn1` [Compound 72, 5-(4-benzylpiperazine-1-carbonyl)-N-(1-benzylpiperidin-4-yl)picolinamide], for which the negative-log EC50 (pEC50) was over 6.30.

For the compound `N#Cc1ccc(CN2CCC(NC(=O)c3ccc(C(=O)N4CCC(C(F)c5ccc(F)cc5)CC4)cn3)CC2)cc1` (stereo not shown) [Compound 138, N-(1-(4-cyanobenzyl)piperidin-4-yl)-5-(4-(fluoro(4-fluorophenyl)methyl)piperidine-1-carbonyl)picolinamide], the pEC50 was over 6.30.

`N#Cc1ccc(Cn2ccc(NC(=O)c3ccc(C(=O)N4CCN(Cc5ccc(F)cc5)CC4)cn3)n2)cc1` [Compound 9, N-(1-(4-cyanobenzyl)-1H-pyrazol-3-yl)-5-(4-(4-fluorobenzyl)piperazine-1-carbonyl)picolinamide] showed a negative logarithm of the EC50 (pEC50) of over 6.30.

For the compound `COc1ccc(C(=O)C2CCN(C(=O)c3ccc(C(=O)NC4CCN(Cc5ccc(NC(=O)CCOCCOCCOCCNC(=O)CCCC[C@@H]6SC[C@@H]7NC(=O)N[C@@H]76)cc5)CC4)nc3)CC2)cc1` [Compound 403, 5-(4-(4-methoxybenzoyl)piperidine-1-carbonyl)-N-(1-(4-(14-oxo-18-((3aS,4S,6aR)-2-oxohexahydro-1H-thieno[3,4-d]imidazol-4-yl)-4,7,10-trioxa-13-azaoctadecanamido)benzyl)piperidin-4-yl)picolinamide], the negative-log EC50 (pEC50) is under 5.00.

In turn, `N#Cc1ccc(Oc2ccc(NC(=O)c3ccc(C(=O)N4CCC(C(=O)c5ccc(F)cc5F)CC4)nc3)nc2)cc1` [Compound 469, N-(5-(4-cyanophenoxy)pyridin-2-yl)-6-(4-(2,4-difluorobenzoyl)piperidine-1-carbonyl)nicotinamide] showed a negative-log EC50 (pEC50) of over 6.30.

`N#Cc1ccc(CN2CCC(NC(=O)c3ccc(C(=O)N4CCC(Oc5ccc(C(F)(F)F)cc5)CC4)cn3)CC2)cc1` [Compound 157, N-(1-(4-cyanobenzyl)piperidin-4-yl)-5-(4-(4-(trifluoromethyl)phenoxy)piperidine-1-carbonyl)picolinamide] showed a pEC50 of over 6.30.

With `O=C(NC1CCN(Cc2ccc(F)cc2)CC1)c1cccc(C(=O)NC2CCN(Cc3ccc(F)cc3)CC2)n1` [Compound 87, N2,N6-bis(1-(4-fluorobenzyl)piperidin-4-yl)pyridine-2,6-dicarboxamide], the pEC50 is 5.30 to 6.00.

Compound `N#Cc1ccc(O[C@H]2CC[C@@H](NC(=O)c3ccc(C(=O)N4CCC(Oc5ccc(C(F)(F)F)cc5)CC4)cn3)CC2)cc1` [Compound 190, N-((cis)-4-(4-cyanophenoxy)cyclohexyl)-5-(4-(4-(trifluoromethyl)phenoxy)piperidine-1-carbonyl)picolinamide] had a negative logarithm of the EC50 (pEC50) of over 6.30.

`CS(=O)(=O)c1ccc(OC2CCN(C(=O)c3ccc(C(=O)Nc4ccc(Oc5ccc(F)cc5)nc4)nc3)CC2)cc1` [Compound 231, N-(6-(4-fluorophenoxy)pyridin-3-yl)-5-(4-(4-(methylsulfonyl)phenoxy)piperidine-1-carbonyl)picolinamide]: the pEC50 was over 6.30.

With `O=C(Nc1ccccc1)c1ccc(C(=O)N2CCN(Cc3ccc(F)cc3)CC2)cn1` [Compound 107, 5-(4-(4-fluorobenzyl)piperazine-1-carbonyl)-N-phenylpicolinamide], the negative-log EC50 (pEC50) was 5.00 to 5.30.

Compound `O=C(Nc1ccc(-c2ccccc2)cc1)c1ccc(C(=O)NC2CCN(Cc3ccccc3)CC2)nc1` [Compound 105, N2-(1-benzylpiperidin-4-yl)-N5-(biphenyl-4-yl)pyridine-2,5-dicarboxamide] showed a negative logarithm of the EC50 (pEC50) of under 5.00.

`O=C(c1ccc(Nc2ccc(Oc3ccccc3)cc2)nc1)N1CCN(Cc2ccc(F)cc2)CC1` [Compound 34, (4-(4-fluorobenzyl)piperazin-1-yl)(6-(4-phenoxyphenylamino)pyridin-3-yl)methanone] showed a negative-log EC50 (pEC50) of 5.30 to 6.00.

As to `N#Cc1ccc(OC2CCN(C(=O)c3ccc(C(=O)NC4CCN(Cc5ccc(OC(F)(F)F)cc5)CC4)cn3)CC2)cc1` [Compound 338, 6-(4-(4-cyanophenoxy)piperidine-1-carbonyl)-N-(1-(4-(trifluoromethoxy)benzyl)piperidin-4-yl)nicotinamide], the pEC50 was over 6.30.

As for `O=C(NC1CCN(Cc2ccc(F)cc2)CC1)c1ccc(C(=O)N2CCC(C(=O)c3ccc(N4CCCC4)cc3)CC2)nc1` [Compound 381, N-(1-(4-fluorobenzyl)piperidin-4-yl)-6-(4-(4-(pyrrolidin-1-yl)benzoyl)piperidine-1-carbonyl)nicotinamide], the pEC50 is over 6.30.

Compound `COc1ccc(-c2ccc(Nc3ccc(C(=O)NC4CCN(Cc5ccccc5)CC4)nc3)cc2)cc1` [Compound 120, N-(1-benzylpiperidin-4-yl)-5-(4′-methoxybiphenyl-4-ylamino)picolinamide] showed a negative logarithm of the EC50 (pEC50) of under 5.00.

`COc1ccc(OC2CCN(C(=O)c3ccc(C(=O)NC4CCN(Cc5ccc(C#N)cc5)CC4)cn3)CC2)c(NC(=O)CCOCCOCCOCCOCCNC(=O)CCCC[C@@H]2SC[C@@H]3NC(=O)N[C@@H]32)c1` [Compound 394, N-(1-(4-cyanobenzyl)piperidin-4-yl)-6-(4-(4-methoxy-2-(17-oxo-21-((3aS,4S,6aR)-2-oxohexahydro-1H-thieno[3,4-d]imidazol-4-yl)-4,7,10,13-tetraoxa-16-azahenicosanamido)phenoxy)piperidine-1-carbonyl)nicotinamide] had a negative-log EC50 (pEC50) of under 5.00.

As for `O=C(Nc1ccc(-c2ccc(C(F)(F)F)cc2)cc1)c1ccc(C(=O)N2CCN(Cc3ccc(F)cc3)CC2)cn1` [Compound 25, 5-(4-(4-fluorobenzyl)piperazine-1-carbonyl)-N-(4-(4-trifluoromethylphenyl)phenyl)picolinamide], the pEC50 is over 6.30.

As for `N#Cc1ccc(CC2CCN(C(=O)c3ccc(C(=O)NC4CCN(Cc5ccc(C#N)cc5)CC4)nc3)CC2)cc1` [Compound 128, N-(1-(4-cyanobenzyl)piperidin-4-yl)-5-(4-(4-cyanobenzyl)piperidine-1-carbonyl)picolinamide], the pEC50 is over 6.30.

With `O=C(c1cccc(C(=O)N2CCN(Cc3ccc(F)cc3)CC2)n1)N1CCN(CCc2ccccc2)CC1` [Compound 93, (4-(4-fluorobenzyl)piperazin-1-yl)(6-(4-phenethylpiperazine-1-carbonyl)pyridin-2-yl)methanone], the pEC50 is under 5.00.

Compound `O=C(N[C@@H]1CCN(Cc2ccncc2)C[C@@H]1F)c1ccc(C(=O)N2CCN(Cc3ccc(F)cc3)CC2)cn1` (relative stereo) [Compound 104, N-(cis-3-fluoro-1-(pyridin-4-ylmethyl)piperidin-4-yl)-5-(4-(4-fluorobenzyl)piperazine-1-carbonyl)picolinamide] showed a pEC50 of over 6.30.

Consider `O=C(Nc1cccc(Oc2ccccc2)c1)c1ccc(C(=O)N2CCN(Cc3ccc(F)cc3)CC2)cn1` [Compound 21, 5-(4-(4-fluorobenzyl)piperazine-1-carbonyl)-N-(3-phenoxyphenyl)picolinamide], for which the negative-log EC50 (pEC50) is over 6.30.

`CN(C)c1ccc(OC2CCN(C(=O)c3ccc(C(=O)NC4CCN(Cc5ccc(C#N)cc5)CC4)cn3)CC2)cc1` [Compound 370, N-(1-(4-cyanobenzyl)piperidin-4-yl)-6-(4-(4-(dimethylamino)phenoxy)piperidine-1-carbonyl)nicotinamide] gave a negative-log EC50 (pEC50) of over 6.30.

Compound `N#Cc1ccc(CN2CCC(NC(=O)c3ccc(C(=O)N4C5CCC4CC(Oc4ccc(C#N)cc4)C5)cn3)CC2)cc1` [Compound 280, N-(1-(4-cyanobenzyl)piperidin-4-yl)-5-((1R,3r,5S)-3-(4-cyanophenoxy)-8-azabicyclo[3.2.1]octane-8-carbonyl)picolinamide] had a pEC50 of over 6.30.
